Values of other authors, collected in patent US20070135435A1, “Certain chemical entities, compositions, and methods” (priority 2005, published 2007).

System: A549 cells

GI50 | SMILES
1000 nM | O=c1[nH]cc(F)c(=O)[nH]1 [5-fluorouracil]
63 nM | COc1cccc2c1C(=O)c1c(O)c3c(c(O)c1C2=O)C[C@@](O)(C(=O)CO)C[C@@H]3O[C@H]1C[C@H](N)[C@H](O)[C@H](C)O1 [doxorubicin]
500000 nM | NC(=O)NO [hydroxyurea]
4 nM | CC(=O)O[C@H]1C(=O)[C@@]2(C)[C@H]([C@H](OC(=O)c3ccccc3)[C@]3(O)C[C@H](OC(=O)[C@H](O)[C@@H](NC(=O)c4ccccc4)c4ccccc4)C(C)=C1C3(C)C)[C@]1(OC(C)=O)CO[C@@H]1C[C@@H]2O [paclitaxel]
